In patent US10618874B2, “Compounds, cosmetic composition and pharmaceutical composition comprising the same” (INCOSPHARM CORPORATION, priority 2018, dated 2020):

Assays:
[1] = test system: keratinocytes (HEKn) with ATG5 knocked down; assay: melanin pigmentation inhibition and autophagy proteins in ATG5 knocked-down keratinocytes; assay type: cell-based, human; settings: 10 μM, FIG. 10; for expression activity of LC3-II and ATG5: western blot
From the text: In order to analyze whether melanin deposition inhibition activity on keratinocytes by treatment with Compound 1 and Compound 2 depends on autophagy activation, ATG5 which is the protein required for autophagy activation was knocked down and treated with melanin to analyze a pigmentation inhibition activity change.
As a specific experimental method, ATG5 siRNA was mixed according to the method of transfection reagent (RNAiMAX, cat #13778-075, Thermo) and deposited in keratinocytes (HEKn, cat # C0015C, Gibco). After 8 hours, Compound 1 and Compound 2 were diluted with Epilife (cat # MEPI500CA, Gibco) without a supplement and an antibiotic to a final concentration of 10 μM for treatment, and cells which were further cultured for 64 hours were dissolved using a cell lysis buffer containing a proteolysis inhibitor. The entire dissolved solution was fractionized using a centrifuge and only the solution containing proteins was extracted. The extracted proteins were quantified by a bicinchoninic acid (BCA) method. 20 μg of proteins were separated by 10% SDS-polyacrylamide gel electrophoresis and transferred to a nitrocellulose film. The film to which the proteins were transferred was blocked by a tris-buffered saline/0.05% Tween-20 (TBS-T) solution containing 5% BSA (bovine serum albumin, Gendepot, Cat # A0100-010) for decreasing a non-specific bonding at room temperature for 1 hour, and then a primary antibody was reacted under the condition of 4° C. overnight and a secondary antibody was reacted at room temperature for 1 hour. For visualization, an enhance chemiluminescence system was used. Then, in order to analyze melanin pigmentation inhibition activity, transfection and treatment with the compounds were performed identically, and then 10 mg/ml of melanin was added by 2 μl at a time and culturing was further performed for 2 hours. The culture medium was removed after completion of culturing, cells were separated from the plate using Trypsin-EDTA (cat # LS-015-09, WELGENE), transferred to a 1.5 ml tube and spun down, a photograph of the pellet was taken, and the absorbance of a solution of the pellet dissolved in 1N NaOH was measured (wavelength: 400 nm, Epoch, BioTek).

[2] = test system: mushroom tyrosinase; assay: tyrosinase activity inhibition assay; assay type: biochemical; settings: 10, 100, 1000 and 10000 ppm; 37° C., 1 hour; FIG. 2
Protocol: As a specific experimental method, mushroom tyrosinase was diluted with a 0.1 M sodium phosphate buffer at 2 unit/ul and dissolved in water at 0.03 wt % of tyrosine. Each experiment group listed in the following Table 1 was also diluted in the 0.1 M sodium phosphate buffer at 10, 100, 1000, and 10000 ppm and mixed as listed in Table 1. Reaction was performed at 37° C. for 1 hour and absorbance was measured, respectively (wavelength: 490 nm, Epoch, BioTek). Based on the results, a tyrosinase inhibition ratio relative to a control group was calculated. [table]

[3] = test system: keratinocytes (HEKn); assay: melanosome degradation: confocal and transmission electron microscopy of keratinocytes given melanosomes; assay type: cell-based, human; settings: 10 μM; confocal microscope; FIG. 11
Protocol: In order to confirm whether melanosome and autuphagosome are co-localized by treatment with Compound 1 and Compound 2 obtained in the above Examples, analysis was performed with an electron microscope and a confocal microscope.
As a specific experimental method, Lysis Buffer (Tris 20 mM, NaCl 150 mM, EDTA 1 mM, sucrose 250 mM in DW) was added to melanin cells (HEMn-DP, cat # C2025C, Gibco) containing human-derived melanin at high concentration, freezing and thawing were repeated twice to break a cell membrane, and centrifugation was performed at 1000×g for 5 minutes, thereby obtaining a supernatant. Cushion Buffer (Tris 20 mM, NaCl 150 mM, EDTA 1 mM, sucrose 1.5M in DW) was placed in an ultracentrifuge tube, the same amount of supernatant was added thereto, and then centrifugation was performed under the conditions of 25,000 rpm, […], and 4° C., thereby obtaining melanosomes. The concentration of melanosomes was measured using synthesized melanin (cat # M8631, sigma) as a standard. Keratinocytes (HEKn, cat # C0015C, Gibco) was deposited in a 6 well by 1×10^5 cells/well at a time and cultured for one day. Treatment with 10 μM of Compound 1 and compound 2 each was performed, culturing was performed for one day, separated melanosomes (5 μg/well) was added, and culturing was further performed for 2 days. […]

[4] = test system: melanin cells (human primary melanocyte, HEMn-DP); assay: MTT assay in melanocytes; assay type: cell-based; settings: 5, 10 and 50 μM, 4 days, FIG. 3
Protocol: (§1) In order to confirm a treatment concentration of Compound and Compound 2 obtained in the above Examples having no cytotoxicity thereby, an MTT assay was performed.
(§2) As a specific experimental method, in order to confirm cytotoxicity depending on the treatment concentration of Compound 1 and Compound 2, apoptosis analysis was performed in melanin cells (human primary melanocyte, HEMn-DP, cat # C2025C, Gibco) and keratinocytes (human primary keratinocyte, HEKn, cat # C0015C, Gibco). Cells were deposited to the number of 1×10^4 cells/well in a 96 well plate and cultured in an incubator for 24 hours under the condition of 37° C. and 5% CO2.
(§3) Each of Compound 1 and Compound 2 obtained in the above Examples was dissolved in distilled water (DW) at a concentration of 100 mM to form a concentrated solution, which was diluted with a medium, and treatment was performed at concentrations of 5, 10, and 50 μM. After 4 days, the medium of the plate was removed and the plate was treated with 100 μl of an MTT reagent (Sigma, 0.5 mg/ml). After 4 hours, the reagent was removed, dimethyl sulfoxide (DMSO) was added thereto, and absorbance was measured (wavelength: 570 nm, Epoch, BioTek). Here, cell viability was calculated as a percentage to absorbance of a control group (blank) which was not treated with the compound.

[5] = test system: human-derived melanin cells (HEMn-DP); MITF, Tyrosinase mRNA; assay: melanosome maturation-related genes (qPCR) and melanin content in melanin cells; assay type: cell-based; settings: 1 ml of 20 μM added to 1 ml medium, 48 hours, FIGS. 5 to 7
Protocol: In order to analyze how Compound 1 and Compound 2 obtained in the above Examples affect melanosome maturation, an amount of melanosome maturation-related mRNA after treated with Compound 1 and Compound 2 was analyzed with qPCR and a melanin content was measured with absorbance.
As a specific experimental method, human-derived melanin cells (HEMn-DP, cat # C2025C, Gibco) were constantly deposited to the number of 1×10^5 in a 6 well plate for culturing and cultured in an incubator for 24 hours under the condition of 37° C. and 5% CO2 in M254 (cat # M-254-500, Gibco). Each of Compound 1 and Compound 2 was dissolved in DW at a concentration of 100 mM to form a concentration solution, which was diluted in a medium at a concentration of 20 μM, 1 ml of each diluted solution was added to each well containing 1 ml of the medium first for treatment and cultured for 48 hours, and RNeasy mini kit (cat #74106, QIAGEN) was used to extract RNA from melanin cells. […] Then, the experiment was performed identically, the medium was removed after completion of culturing, melanin cells were separated from the plate using Trypsin-EDTA (cat # LS-015-09, WELGENE), transferred to a 1.5 ml tube, and spun down, a photograph of the pellet was taken, and the absorbance of a solution of the pellet dissolved in 1N NaOH was measured (wavelength: 400 nm, Epoch, BioTek).

[6] = test system: keratinocytes (human primary keratinocyte, HEKn); assay: MTT assay in keratinocytes; assay type: cell-based; settings: 5, 10 and 50 μM, 4 days, FIG. 4
Protocol: as §1, §2, §3

[7] = test system: human-derived keratinocytes (HEKn); assay: melanin pigmentation in keratinocytes after melanin treatment; assay type: cell-based; settings: 48 hours treatment, then melanin 2 hours; absorbance 400 nm; FIG. 9
Protocol: In order to analyze how Compound 1 and Compound 2 obtained in the above Examples affect melanin pigmentation, a degree of pigmentation inhibition by melanin treatment was analyzed.
As a specific experimental method, human-derived keratinocytes (HEKn, cat # C0015C, Gibco) were constantly deposited to the number of 1×10^5 in a 6 well plate for culturing and cultured in an incubator for 24 hours under the condition of […] and 5% CO2 in EpiLife (cat # MEPI500CA, Gibco). Each of Compound 1 or Compound 2 obtained in the above Examples was dissolved at a concentration of 100 mM to form a concentration solution, which was diluted in a medium at a concentration of 20 μM, 1 ml of each diluted solution was added to each well containing 1 ml of the medium first for treatment and cultured for 48 hours, and 10 mg/ml of melanin was added by 2 μl at a time and culturing was further performed for 2 hours. The medium was removed after completion of culturing, cells were separated from the plate using Trypsin-EDTA (cat # LS-015-09, WELGENE), transferred to a 1.5 ml tube and spun down, a photograph of the pellet was taken, and the absorbance of a solution of the pellet dissolved in 1N NaOH was measured (wavelength: 400 nm, Epoch, BioTek).

[8] = test system: LC3 (light chain 3; autophagy marker) in keratinocytes (HEKn); assay: western blot on LC3 protein in keratinocytes (autophagy activation); assay type: cell-based, human; settings: FIG. 8
Protocol: (§4) For intracellular autophagy analysis by treatment with Compound 1 obtained in the above Example, a western blot was performed on a LC3 (light chain 3; autophagy marker) protein. In addition, for analysis of change in endocytosis-related genes by treatment with Compound 2 obtained in the above Example, qPCR was performed on PAR2, AAK1 (AP2 Associated Kinase 1).
As a specific experimental method, keratinocytes (HEKn, cat # C0015C, Gibco) was treated with Compound 1 and dissolved using a cell lysis buffer containing a proteolysis inhibitor. The entire dissolved solution was fractionized using a centrifuge and only the solution containing proteins was extracted. The extracted proteins were quantified by a bicinchoninic acid (BCA) method. 20 μg of proteins were separated by 10% SDS-polyacrylamide gel electrophoresis and transferred to a nitrocellulose film. The film to which the proteins were transferred was blocked by a tris-buffered saline/0.05% Tween-20 (TBS-T) solution containing 5% non-fat milk for decreasing a non-specific bonding at room temperature for 1 hour, and then a primary antibody was reacted under the condition of 4° C. overnight and a secondary antibody was reacted at room temperature for 1 hour. For visualization, an enhanced chemiluminescence system was used.

[9] = test system: PAR-2 gene in keratinocytes (HEKn); assay: qPCR of endocytosis-related gene PAR2 in keratinocytes; assay type: cell-based, human; settings: FIG. 8
Protocol: as §4
As a specific experimental method, from keratinocytes (HEKn, cat # C0015C, Gibco) treated with Compound 2, RNA was extracted using a RNeasy mini kit (cat #74106, QIAGEN), cDNA was synthesized using a cDNA synthesis kit (cat # FSQ-201, TOYOBO), and then a PAR2(F: CTCTCCTGCAGTGGCACCAT; R: GATGTGCCATCAACCTTACCAA) primer and POWER SYBR MASTER MIX (cat #4367659, Thermo) were mixed at a recommended ratio with the synthesized cDNA, and qPCR was performed with QuantStudio 3 equipment (cat # A28131, Thermo).

SMILES	melanin amount in keratinocytes [1]	expression activity of LC3-II and ATG5 [1]	tyrosinase activity inhibition [2]	co-localization of increased autophagosomes with melanosomes [3]	cytotoxicity (MTT, cell viability) [4]	influence on melanosome maturation activity (tyrosinase and MITF mRNA, melanin content) [5]	cytotoxicity (MTT, cell viability) [6]	melanin pigmentation on keratinocytes [7]	production of LC3-II (matured autophagosome) [8]	expression of the PAR-2 gene [9]
CC(=O)N1C[C@H](O)C[C@H]1C(=O)NCCCC[C@H](NC(=O)[C@H](CCCCN(CC(=O)O)CC(=O)O)N(CC(=O)O)CC(=O)O)C(=O)O [Compound 1]	not decreased	inhibited	did not inhibit tyrosinase activity	co-localized with melanosomes	almost no cytotoxicity	almost no influence	almost no cytotoxicity	effectively inhibited	increased	
O=C(O)CN(CCCC[C@@H](C(=O)N1C[C@H](O)C[C@H]1C(=O)O)N(CC(=O)O)CC(=O)O)CC(=O)O [Compound 2]	not decreased	inhibited	did not inhibit tyrosinase activity	co-localized with melanosomes	almost no cytotoxicity	almost no influence	almost no cytotoxicity	effectively inhibited		decreased
